In PubChem BioAssay (NCI):
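Results reflect a 48-hour exposure of cells in 96-well plates to compound at five concentrations. GI50 is the concentration that inhibits growth by half. Definition used: TGI = concentration required for complete inhibition of growth.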 Peptide text beside a SMILES is read from it. * marks the point of attachment. OSu = O=C1CCC(=O)N1O*; OBn = c1ccc(CO*)cc1; Bn = c1ccc(C*)cc1

What was measured:
Test in all cases: inhibition of tumour cell growth, NCI panel, 48 h
BT-549 breast = tested on: BT-549 breast
NCI-H226 lung = tested on: NCI-H226 lung
ACHN renal = tested on: ACHN renal
UACC-257 melanoma = tested on: UACC-257 melanoma
DU-145 prostate = tested on: DU-145 prostate
HCT-15 colon = tested on: HCT-15 colon
HCC-2998 colon = tested on: HCC-2998 colon
A498 renal = tested on: A498 renal
K-562 leukemia = tested on: K-562 leukemia
OVCAR-5 ovarian = tested on: OVCAR-5 ovarian

| SMILES | TGI (BT-549 breast) [µM] | TGI (NCI-H226 lung) [µM] | TGI (ACHN renal) [µM] | TGI (UACC-257 melanoma) [µM] | TGI (DU-145 prostate) [µM] | TGI (HCT-15 colon) [µM] | TGI (HCC-2998 colon) [µM] | TGI (A498 renal) [µM] | TGI (K-562 leukemia) [µM] | TGI (OVCAR-5 ovarian) [µM] | GI50 (BT-549 breast) [µM] | GI50 (NCI-H226 lung) [µM] | GI50 (ACHN renal) [µM] | GI50 (UACC-257 melanoma) [µM] | GI50 (DU-145 prostate) [µM] | GI50 (HCT-15 colon) [µM] | GI50 (HCC-2998 colon) [µM] | GI50 (A498 renal) [µM] | GI50 (K-562 leukemia) [µM] | GI50 (OVCAR-5 ovarian) [µM] |
| --- | --- | --- | --- | --- | --- | --- | --- | --- | --- | --- | --- | --- | --- | --- | --- | --- | --- | --- | --- | --- |
| COc1cc([C@@H]2c3cc4c(cc3[C@@H](Nc3ccc(NC(=O)c5cc(NC(=O)c6cc([N+](=O)[O-])cn6C)cn5C)cc3)[C@H]3COC(=O)[C@H]23)OCO4)cc(OC)c1O | > 100 | > 44.4 | 12.1 | > 82.4 | 5.22 | > 55.2 | 26.4 | > 52.9 | 14.4 | 99.6 |  |  |  |  |  |  |  |  |  |  |
| O=[N+]([O-])c1cc(Cl)ccc1S(=O)(=O)c1cc(Cl)cc2c1NCCC2 | > 100 | > 100 | > 100 | 64.8 | > 100 | > 100 | > 100 | > 100 | > 100 | > 100 |  |  |  |  |  |  |  |  |  |  |
| Cn1c(=O)c2[nH]c(-n3nc(-c4ccccc4)cc3N)nc2n(C)c1=O | > 100 | 33.7 | 37 |  | 45 | > 100 | > 100 | 27.9 | > 100 | > 100 |  |  |  |  |  |  |  |  |  |  |
| Oc1ccccc1C=Nc1ccccc1N=Cc1ccccc1O |  | > 100 | > 100 | > 100 |  | > 100 | > 100 |  | > 100 |  |  |  |  |  |  |  |  |  |  |  |
| COC1CCC(n2c([C@@H]3CCCC(=O)N3c3ccc(F)c(F)c3)nc3cc(-c4c(C)noc4C)ccc32)CC1 (stereo partly drawn) | 27.2 | 19.7 | 21.1 | > 100 | 54.2 | 38.3 | 19.6 | 20 | > 100 | > 100 | 10.3 | 4.31 | 4.78 | 2.54 | 16.8 | 4.73 | 4.19 | 5.99 | 2.8 | 17.2 |
| CC1=CC(=O)/C(=C/N2CCNC2=S)C(=O)O1 | > 100 | > 100 | > 100 | > 100 | > 100 | > 100 | > 100 | > 100 | > 100 | > 100 |  |  |  |  |  |  |  |  |  |  |
| CC(C)C[C@H](NC(=O)[C@H](CCc1ccccc1)NC(=O)c1ccc2ccccc2n1)B(O)O | 0.152 | 0.367 | 0.176 | 0.0676 | 3.49 | 0.52 | 0.149 | 4.38 | > 100 | 0.617 |  |  |  |  |  |  |  |  |  |  |
| CC1(CO)C(=O)OC12CCCCC2 (stereo not drawn) |  | > 100 |  | > 100 |  |  | > 100 | > 100 | > 100 |  |  |  |  |  |  |  |  |  |  |  |
| CCOC(=O)O/N=C1/C(c2c(O)[nH]c3ccccc23)=Nc2ccccc21 | 31.7 |  | 33.1 | 24.6 | 13.3 | 20.4 | 6.46 | 16.8 | > 100 | 56.2 |  |  |  |  |  |  |  |  |  |  |
| COc1c(Cl)c(Cl)c(OC)c2c1C(=O)C=CC2=O |  | > 100 | 29.2 | 35.4 |  | > 100 | > 100 | > 100 | 64.4 | > 100 |  |  |  |  |  |  |  |  |  |  |
| O=[N+]([O-])c1ccc(Cl)cc1N/N=C/c1cccs1 | > 100 | > 100 | > 100 | > 100 | > 100 | > 100 | > 100 |  | > 100 |  |  |  |  |  |  |  |  |  |  |  |
| O=C(c1ccccc1)n1[nH]c(=O)n(-c2ccc(Cl)cc2)c1=O | > 100 | > 100 | > 100 | > 100 | > 100 | > 100 | > 100 |  | > 100 | > 100 |  |  |  |  |  |  |  |  |  |  |
| NC(=S)N/N=C(\C(=O)Nc1ccc(Cl)c(Cl)c1)C1=NN(c2ccccc2)C(c2cccc([N+](=O)[O-])c2)CC1=O (stereo not drawn) |  | 93.6 | > 100 | 83.1 |  | > 100 | > 100 | > 100 | 65.5 | > 100 |  |  |  |  |  |  |  |  |  |  |
| NC(CNc1ccc(O)cc1)C(=O)O (stereo not drawn) |  | > 100 | > 100 | > 100 |  | > 100 |  | > 100 | > 100 | > 100 |  |  |  |  |  |  |  |  |  |  |
| C/C(=N\NC(=O)N/N=C(\C)c1ccccn1)c1ccccn1 | 18.2 | > 100 | > 100 | > 100 | > 100 | > 100 | > 100 | > 100 |  | > 100 |  |  |  |  |  |  |  |  |  |  |
| COc1ccc(CCC2NCCc3cc(OC)c(OC)cc32)cc1 (stereo not drawn) |  |  | > 100 | > 100 |  | > 100 | > 100 | > 100 | > 100 | > 100 |  |  |  |  |  |  |  |  |  |  |
| CCOC(=O)C12C(=O)CCN1CCc1ccccc1C2C (stereo not drawn) | > 100 | > 100 | > 100 | > 100 | > 100 | > 100 |  | > 100 | > 100 | > 100 |  |  |  |  |  |  |  |  |  |  |
| O=C1NC(=S)NC(=O)C1=Cc1ccc2ccccc2n1 |  | > 100 | > 100 | > 100 |  | > 100 | > 100 | > 100 | > 100 | > 100 |  |  |  |  |  |  |  |  |  |  |
| Cc1ccc(C2(c3ccc(C)c(O)c3C)CCN(C)CC2)c(C)c1O | > 100 | > 100 | > 100 | 35.3 | > 100 | > 100 |  | > 100 | > 100 | > 100 |  |  |  |  |  |  |  |  |  |  |
| CCOC(=O)CN(Cc1ccccc1)Cc1c(C(=O)c2ccccc2)c2ccccc2n1C(=O)c1ccccc1 |  | > 100 | > 100 |  |  | > 100 | > 100 | > 100 | > 100 | > 100 |  |  |  |  |  |  |  |  |  |  |
| CCc1cc2c(oc3c4ccccc4ccc23)c(=O)[nH]1 | > 10 | > 10 | > 10 | > 10 | > 10 |  |  |  | > 10 | > 10 |  |  |  |  |  |  |  |  |  |  |
| CC(C)CC(NC(=O)C(N)CCC(=O)OCc1ccccc1)C(=O)NC(COCc1ccccc1)C(=O)NC(Cc1ccccc1)C(=O)ON1C(=O)CCC1=O (stereo not drawn) (H-E(OBn)LS(Bn)F-OSu; configuration not given here) |  |  | > 100 | 66.1 | > 100 |  |  |  |  | 66.9 |  |  |  |  |  |  |  |  |  |  |
| CC(C)(CN1CCCCC1)C(=O)/C=C/c1c(Cl)cccc1Cl | 4.06 | 9.88 | 3.28 | 6.36 | 2.44 | 2.28 | 3.23 | 4.96 |  | 2.97 |  |  |  |  |  |  |  |  |  |  |
